Reference: US12053458B2, “Treating sickle cell disease with a pyruvate kinase R activating compound” (Novo Nordisk Health Care AG, priority 2018, dated 2024)
Where “and” joins values, the source holds several entries; their conditions need not be identical. Identical values can stand only once.

How the values were obtained:
Berkeley SS mouse = Berkeley SS mouse model of SCD, 7 days in chow; format: in vivo; settings: 1000 ppm in chow
Description: Targeted gene deletions and a human transgene in the Berkeley SS mouse model result in mice that express human HgbS almost exclusively (Pászty C. Transgenic and gene knock-out mouse models of sickle cell anemia and the thalassemias. Curr Opin Hematol. 1997 March; 4(2):88-93) and mimic the genetic, hematologic, and histopathologic features of SCD in humans. These include irreversibly sickled RBCs, anemia, and multi-organ pathology.
The effects of Compound 1 on Hgb affinity for oxygen, percentage of sickled cells, and/or Hgb were evaluated in the Berkley SS mouse. Two studies were conducted where mice received 0 or 1000 ppm Compound 1 ad libitum in mouse chow for 7 days. Blood was drawn on Day 7 and analyzed under hypoxic conditions. Red cell parameters were measured by ADVIA.

healthy volunteers [1] = assay: Phase 1 single ascending dose (SAD) cohorts; format: in vivo, human
Description: (§1) This is a first-in-human (FIH), Phase 1 study of Compound 1 that will characterize the safety, PK, and PD of Compound 1 after a single dose and after repeated dosing first in healthy adult volunteers and then in adolescents or adults with sickle cell disease. Initially, a dose range of Compound 1 in single ascending dose (SAD) escalation cohorts will be explored in healthy subjects. Enrollment of healthy subjects into 2-week multiple ascending dose (MAD) escalation cohorts will be initiated once the safety and PK from at least two SAD cohorts is available to inform the doses for the 2-week MAD portion of the study. The MAD cohorts will then run in parallel to the single dose cohorts. A single dose cohort is planned to understand food effects (FE) on the PK of Compound 1. […] Multiple dose studies in SCD subjects will then be initiated upon completion of MAD studies in healthy volunteers. Compound 1 will be administered in 25 mg and 100 mg tablets delivered orally.
(§2) Four healthy SAD cohorts were evaluated at doses of 200, 400, 700, and 1000 mg, and four healthy MAD cohorts received 200 to 600 mg total daily doses for 14 days at QD or BID dosing (100 mg BID, 200 mg BID, 300 mg BID, and 400 mg QD). In the food effect (FE) cohort, 10 healthy subjects received 200 mg of Compound 1 QD with and without food.
In the SAD cohorts, the subjects' blood 2,3-DPG levels were measured periodically after dosing by a qualified LC-MS/MS method for the quantitation of 2,3-DPG in blood. Decreased 2,3-DPG blood levels were observed 6 hours following a single dose of Compound 1 at all dose levels (earlier timepoints were not collected). Maximum decreases in 2,3-DPG levels generally occurred ˜24 hours after the first dose with the reduction sustained ˜48-72 hr postdose. Table 14 reports the median percentage change in 2,3-DPG blood levels, relative to baseline, measured over time in healthy volunteers after a single dose of Compound 1 (200 mg, 400 mg, 700 mg, or 1000 mg) or placebo. Accordingly, the median reduction in the concentration of 2,3-DPG, relative to baseline, was at least about 30% at all dose levels tested 24 hours after administration of the single dose.
In the SAD cohorts, the subjects' P50 (PO2 at 50% hemoglobin saturation) were determined 24-hours post-dose. P50 measured 24 hours after a single dose of Compound 1 were reduced at all dose levels tested (median reduction ranged from ˜3-5 mmHg). Table 15 reports the mean absolute change in P50, relative to baseline, measured 24 hours after a single dose of Compound 1 (200 mg, 400 mg, 700 mg, or 1000 mg) or placebo in healthy volunteers.
(§3) The following procedures are employed for the analysis of ATP and 2,3-DPG in human whole blood K2EDTA using a protein precipitation extraction procedure and analysis by LC-MS/MS.

wt-PKR [2] = biological target: T1, wt-PKR (Homo sapiens, UniProt P30613); assay: Enzyme assay: effect on Vmax and PEP Km, wt-PKR; format: biochemical; settings: 2 μM Compound 1; for Vmax: WT-PKR, normalized to 1.00 relative to other values in the row
Experimental: (§4) Tests were conducted in the presence and absence of fructose-1,6-bisphosphate (FBP), a known allosteric activator of PKR.

PKR-R510Q [3] = biological target: T2, PKR-R510Q (Homo sapiens, UniProt P30613, R510Q); assay: Enzyme assay: activation (rate of ATP formation) by different concentrations, PKR-R510Q; format: biochemical; settings: PEP at or below Km
wt-PKR [4] = biological target: T1, wt-PKR; assay: PKR activation in mature human erythrocytes ex vivo (Biovision Pyruvate Kinase Assay); format: cell-based; design: evaluated in purified RBCs purchased from Research Blood Components; host or cells: purified mature human erythrocytes from donors; settings: human RBCs, 3 hr treatment
Experimental: (§5) The activation of wt-PKR by Compound 1 in mature human erythrocytes ex vivo was evaluated in purified RBCs purchased from Research Blood Components. Cells treated with Compound 1 for 3 hr in glucose-containing media were washed, lysed, and assayed using a Biovision Pyruvate Kinase Assay (K709-100). The assay was repeated multiple times to account for donor-to-donor variability and the relatively narrow dynamic range.

PKR-R510Q [5] = biological target: T2, PKR-R510Q; assay: Enzyme assay: effect on Vmax and PEP Km, PKR-R510Q; format: biochemical; settings: 2 μM Compound 1; for Vmax: PKR R510Q, normalized to 1.00 relative to other values in the row
Experimental: as §4

Balb/c mice = assay: PK/PD studies in wild type Balb/c mice, oral gavage QD×7; format: in vivo
Experimental: Two pharmacokinetic (PK)/phamacodynamic (PD) studies were conducted in Balb/c mice that were administered Compound 1 once daily by oral gavage (formulated in 10% Cremophor EL/10% PG/80% DI water) for 7 days (QD×7) at doses of 0 (vehicle), 3.75, 7.5, 15, 30, 60 mg/kg (Study 1); 0 (vehicle), 7.5, 15, 30, 60, 120, or 240 mg/kg (Study 2). On the 7th day, whole blood was collected 24 hours after dosing and snap frozen. Samples were later thawed and analyzed by LC/MS for 2,3-DPG and ATP levels.

PKR = biological target: T3, PKR (Mus musculus, UniProt P53657); assay: PKR activation in mouse red blood cells; format: cell-based; settings: mouse RBCs
T3 construct: Mouse RBCs were isolated fresh from whole blood using a Ficoll gradient; endogenous in cells; host or cells: freshly isolated mouse red blood cells
Experimental: as §5
Mouse RBCs were isolated fresh from whole blood using a Ficoll gradient and assayed with methods similar to those used in the human RBCs assays.

healthy volunteers [6] = assay: Phase 1 multiple ascending dose (MAD) cohorts, 14 days; format: in vivo, human
Description: as §1, §2
In the MAD cohorts, the subjects' blood 2,3-DPG levels were measured periodically after dosing by a qualified LC-MS/MS method for the quantitation of 2,3-DPG in blood. The maximum decrease in 2,3-DPG on Day 14 was 55% from baseline (median). […] Table 16 reports the median percentage change in 2,3-DPG blood levels, relative to baseline, measured over time after the first dose on days 1 and 14 in healthy volunteers who received daily doses of Compound 1 (100 mg BID, 200 mg BID, or 300 mg BID) or placebo for 14 days. Accordingly, the median reduction in the concentration of 2,3-DPG, relative to baseline, was at least about 25% at all dose levels tested 24 hours after administration of the first dose on day 1 and at least about 40% at all dose levels tested 24 hours after administration of the first dose on day 14.
In the MAD cohorts, the subjects' P50 (PO2 at 50% hemoglobin saturation) were determined on day 14. P50 values measured after 14 days of twice daily dosing were reduced at all dose levels tested (median reduction ranged from −3-5 mmHg). Table 17 reports the mean absolute change in P50, relative to baseline, measured on day 14 in healthy volunteers who received daily doses of Compound 1 (100 mg BID, 200 mg BID, or 300 mg BID) or placebo for 14 days.
In the MAD cohorts, the subjects' blood ATP levels were measured on day 14 by a qualified LC-MS/MS method for the quantitation of ATP in blood. […] Table 18 reports the median percentage change in blood ATP levels, relative to baseline, measured over time after the first dose on day 14 in healthy volunteers who received daily doses of Compound 1 (100 mg BID, or 200 mg BID) or placebo for 14 days.
as §3

wt-PKR [7] = biological target: T1, wt-PKR; assay: Enzyme assay: activation (rate of ATP formation) by different concentrations, wt-PKR; format: biochemical; settings: PEP at or below Km
PKR-R510Q [8] = biological target: T2, PKR-R510Q; assay: Luminescence Assay (Kinase Glo Plus), PKR(R510Q); format: biochemical; settings: 100 μM PEP, 100 μM ADP, read-out: AC50 (PKRR510Q)
Experimental: For each tested compound, the ability to activate PKR was determined using the following Luminescence Assay. The effect of phosphorylation of adenosine-5′-diphosphate (ADP) by PKR is determined by the Kinase Glo Plus Assay (Promega) in the presence or absence of FBP (D-fructose-1,6-diphosphate; BOC Sciences, CAS: 81028-91-3) as follows. Unless otherwise indicated, all reagents are purchased from Sigma-Aldrich. All reagents are prepared in buffer containing 50 mM Tris-HCl, 100 mM KCl, 5 mM MgCl2, and 0.01% Triton X100, 0.03% BSA, and 1 mM DTT. Enzyme and PEP (phosphoenolpyruvate) are added at 2× to all wells of an assay-ready plate containing serial dilutions of test compounds or DMSO vehicle. Final enzyme concentrations for PKR(wt), PKR(R510Q), and PKR(G332S) are 0.8 nM, 0.8 nM, and 10 nM respectively. Final PEP concentration is 100 μM. The Enzyme/PEP mixture is incubated with compounds for 30 minutes at RT before the assay is initiated with the addition of 2×ADP and KinaseGloPlus. Final concentration of ADP is 100 μM. […] For assays containing FBP, that reagent is added at 30 μM upon reaction initiation. Reactions are allowed to progress for 45 minutes at RT until luminescence is recorded by the BMG PHERAstar FS Multilabel Reader. The compound is tested in triplicate at concentrations ranging from 42.5 μM to 2.2 nM in 0.83% DMSO. […]

[9] = SAD, all doses and timepoints, N = 24
[10] = MAD, all doses and timepoints, N = 36

T1 sequence (P30613 whole entry): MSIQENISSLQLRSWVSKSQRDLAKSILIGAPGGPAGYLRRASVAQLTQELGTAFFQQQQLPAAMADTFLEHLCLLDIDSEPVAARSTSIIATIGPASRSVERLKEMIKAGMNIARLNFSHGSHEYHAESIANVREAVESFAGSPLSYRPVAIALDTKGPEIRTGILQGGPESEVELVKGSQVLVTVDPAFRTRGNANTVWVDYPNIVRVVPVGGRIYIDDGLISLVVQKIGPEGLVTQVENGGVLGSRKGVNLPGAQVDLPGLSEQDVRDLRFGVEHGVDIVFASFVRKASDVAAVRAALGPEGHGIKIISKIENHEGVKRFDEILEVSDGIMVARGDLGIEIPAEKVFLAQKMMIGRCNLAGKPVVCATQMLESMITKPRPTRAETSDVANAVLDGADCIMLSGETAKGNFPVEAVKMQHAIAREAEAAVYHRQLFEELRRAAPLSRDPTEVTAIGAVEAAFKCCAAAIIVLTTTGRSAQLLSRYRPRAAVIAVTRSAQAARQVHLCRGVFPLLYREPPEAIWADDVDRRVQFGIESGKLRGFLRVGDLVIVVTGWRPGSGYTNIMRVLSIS
T3 sequence (P53657 whole entry): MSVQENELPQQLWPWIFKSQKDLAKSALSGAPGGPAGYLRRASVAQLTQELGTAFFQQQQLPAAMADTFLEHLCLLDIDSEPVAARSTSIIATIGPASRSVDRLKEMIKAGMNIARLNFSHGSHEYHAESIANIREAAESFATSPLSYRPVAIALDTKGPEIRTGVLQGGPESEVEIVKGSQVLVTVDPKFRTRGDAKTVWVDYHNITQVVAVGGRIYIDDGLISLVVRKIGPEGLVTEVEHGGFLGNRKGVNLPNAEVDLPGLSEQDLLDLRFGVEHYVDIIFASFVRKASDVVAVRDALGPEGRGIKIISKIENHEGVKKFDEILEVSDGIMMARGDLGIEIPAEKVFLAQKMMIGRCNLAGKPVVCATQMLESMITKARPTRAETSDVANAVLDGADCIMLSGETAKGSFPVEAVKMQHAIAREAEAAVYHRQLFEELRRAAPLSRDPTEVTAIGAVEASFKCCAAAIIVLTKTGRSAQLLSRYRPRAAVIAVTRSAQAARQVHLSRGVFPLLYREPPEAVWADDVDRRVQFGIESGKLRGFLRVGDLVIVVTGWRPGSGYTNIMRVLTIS
T2 sequence (P30613 whole entry R510Q): as the sequence (P30613 whole entry) above, with R510Q counted along it

O=C([C@H](CO)c1ccccc1)N1CC2=C(C1)CN(S(=O)(=O)c1cnc3c(c1)OCCO3)C2 (single isomer, unassigned) [Compound 1]
Level of reticulocytes (Berkeley SS mouse): reduced | Oxygen affinity to Hgb under hypoxic conditions (Berkeley SS mouse): increased | Percentage of RBCs that sickled at low oxygen pressures (Berkeley SS mouse): decreased | Time to sickle (Berkeley SS mouse): increased | P50 (Berkeley SS mouse; hypoxic conditions): decreased | Time of maximum decrease in 2,3-DPG levels after the first dose (healthy volunteers [1]; SAD cohorts): ~24 h | Serious adverse events / AEs leading to withdrawal (healthy volunteers [1]; SAD cohorts 200-1000 mg): No serious adverse events (SAEs) or AEs leading to withdrawal were reported | 2,3-DPG, Mean Maximum Percent Change from Baseline (healthy volunteers [1]; [9]): −46.8% | ATP, Mean Maximum Percent Change from Baseline (healthy volunteers [1]; [9]): 24.4% | Median reduction in the concentration of 2,3-DPG relative to baseline (healthy volunteers [1]; all dose levels, 24 hours after single dose): at least 30% | Single dose exposure versus dose (healthy volunteers [1]; doses ≥700 mg): increased in greater than dose-proportional manner | Time of pharmacodynamic maximum (minimum of 2,3-DPG concentration) (healthy volunteers [1]; single dose 400 mg): ~24 h | Time of pharmacokinetic maximum (maximum of the PK curve) (healthy volunteers [1]; single dose 400 mg): 1 to 2 h | Vmax (wt-PKR [2]; 30 μM FBP): 1.16 | Vmax (wt-PKR [2]; No FBP): 1.14 | Effect on Vmax (wt-PKR [2]; wt-PKR): no effect to a modest increase | Reduction of PEP Km (wt-PKR [2]; wt-PKR, presence or absence of FBP): ~2 fold | Maximum-fold Activation (PKR-R510Q [3]): <3.0 fold | EC50 (wt-PKR [4]; mean of replicates): < 125 nM | Max − Min (%) (wt-PKR [4]; single replicates): <125% and <150% and <100% and <50% | Vmax (PKR-R510Q [5]; 30 μM FBP): 1.29 | Vmax (PKR-R510Q [5]; No FBP): 1.56 | Effect on Vmax (PKR-R510Q [5]; PKR-R510Q): no effect to a modest increase | Reduction of PEP Km (PKR-R510Q [5]; PKR-R510Q, presence or absence of FBP): ~2 fold | Exposure versus dose (Balb/c mice; mice, oral): increased in a dose-proportional manner | Adverse clinical signs (Balb/c mice; oral QD×7, both studies): No adverse clinical signs were observed | Body weight change (Balb/c mice; oral QD×7, both studies): no differences in body weight change compared with the vehicle group | Tolerability (Balb/c mice; oral QD×7, up to 240 mg/kg, both studies): well tolerated up to the highest dose tested | Max − Min (%), Mean (PKR; mean of replicates): <100% | Max − Min (%) (PKR; single replicates): <50% and <100% | PK linearity, multiple doses (healthy volunteers [6]; 100-300 mg BID, 400 mg QD): linear PK was observed across all dose levels | Serious adverse events / AEs leading to withdrawal (healthy volunteers [6]; MAD cohorts 200-600 mg total daily, 14 days): No serious adverse events (SAEs) or AEs leading to withdrawal were reported | 2,3-DPG, Mean Maximum Percent Change from Baseline (healthy volunteers [6]; [10]): −56.3% | ATP, Mean Maximum Percent Change from Baseline (healthy volunteers [6]; [10]): 68.5% | Median reduction of P50 (healthy volunteers [6]; after 14 days of twice daily dosing, all dose levels): −3-5 mmHg | Blood ATP levels relative to baseline (healthy volunteers [6]; day 14, remained so 60 hours after the last dose): elevated | Exposure over time, multiple doses (healthy volunteers [6]; up to day 14): remained steady up to day 14, without cumulative effect | Maximum-fold Activation (wt-PKR [7]): <2.0 fold | AC50 (PKR-R510Q [8]): ≤ 100 nM
